Experimental findings from ChEMBL document CHEMBL1201862, “PubChem BioAssay data set” (2004) are described below.

Active and inactive are the calls of the source. Bounds are passed on as bounds.

Broadly, the IC50 is the midpoint of a concentration-inhibition curve. For orientation: AC50 means the midpoint of the concentration-response curve, whichever way the signal moves. Broadly, the EC50 is the concentration needed to bring the measured effect to its halfway point.

For experiment [1], the target named is T1, Voltage-gated N-type calcium channel alpha-1B subunit/Amyloid beta A4 precursor protein-binding family A member 1 (Homo sapiens, UniProt Q00975+Q02410). The experiment is described as follows: disruptors of Mint-PDZ/N-type channel peptide interaction – biochemical, HTRF, set 2, SAR follow-up (AID 434980). In kind it is functional. Background: In TR-FRET formats the signal depends on donor and acceptor labels being close together.
T1 sequence (Q00975 whole entry): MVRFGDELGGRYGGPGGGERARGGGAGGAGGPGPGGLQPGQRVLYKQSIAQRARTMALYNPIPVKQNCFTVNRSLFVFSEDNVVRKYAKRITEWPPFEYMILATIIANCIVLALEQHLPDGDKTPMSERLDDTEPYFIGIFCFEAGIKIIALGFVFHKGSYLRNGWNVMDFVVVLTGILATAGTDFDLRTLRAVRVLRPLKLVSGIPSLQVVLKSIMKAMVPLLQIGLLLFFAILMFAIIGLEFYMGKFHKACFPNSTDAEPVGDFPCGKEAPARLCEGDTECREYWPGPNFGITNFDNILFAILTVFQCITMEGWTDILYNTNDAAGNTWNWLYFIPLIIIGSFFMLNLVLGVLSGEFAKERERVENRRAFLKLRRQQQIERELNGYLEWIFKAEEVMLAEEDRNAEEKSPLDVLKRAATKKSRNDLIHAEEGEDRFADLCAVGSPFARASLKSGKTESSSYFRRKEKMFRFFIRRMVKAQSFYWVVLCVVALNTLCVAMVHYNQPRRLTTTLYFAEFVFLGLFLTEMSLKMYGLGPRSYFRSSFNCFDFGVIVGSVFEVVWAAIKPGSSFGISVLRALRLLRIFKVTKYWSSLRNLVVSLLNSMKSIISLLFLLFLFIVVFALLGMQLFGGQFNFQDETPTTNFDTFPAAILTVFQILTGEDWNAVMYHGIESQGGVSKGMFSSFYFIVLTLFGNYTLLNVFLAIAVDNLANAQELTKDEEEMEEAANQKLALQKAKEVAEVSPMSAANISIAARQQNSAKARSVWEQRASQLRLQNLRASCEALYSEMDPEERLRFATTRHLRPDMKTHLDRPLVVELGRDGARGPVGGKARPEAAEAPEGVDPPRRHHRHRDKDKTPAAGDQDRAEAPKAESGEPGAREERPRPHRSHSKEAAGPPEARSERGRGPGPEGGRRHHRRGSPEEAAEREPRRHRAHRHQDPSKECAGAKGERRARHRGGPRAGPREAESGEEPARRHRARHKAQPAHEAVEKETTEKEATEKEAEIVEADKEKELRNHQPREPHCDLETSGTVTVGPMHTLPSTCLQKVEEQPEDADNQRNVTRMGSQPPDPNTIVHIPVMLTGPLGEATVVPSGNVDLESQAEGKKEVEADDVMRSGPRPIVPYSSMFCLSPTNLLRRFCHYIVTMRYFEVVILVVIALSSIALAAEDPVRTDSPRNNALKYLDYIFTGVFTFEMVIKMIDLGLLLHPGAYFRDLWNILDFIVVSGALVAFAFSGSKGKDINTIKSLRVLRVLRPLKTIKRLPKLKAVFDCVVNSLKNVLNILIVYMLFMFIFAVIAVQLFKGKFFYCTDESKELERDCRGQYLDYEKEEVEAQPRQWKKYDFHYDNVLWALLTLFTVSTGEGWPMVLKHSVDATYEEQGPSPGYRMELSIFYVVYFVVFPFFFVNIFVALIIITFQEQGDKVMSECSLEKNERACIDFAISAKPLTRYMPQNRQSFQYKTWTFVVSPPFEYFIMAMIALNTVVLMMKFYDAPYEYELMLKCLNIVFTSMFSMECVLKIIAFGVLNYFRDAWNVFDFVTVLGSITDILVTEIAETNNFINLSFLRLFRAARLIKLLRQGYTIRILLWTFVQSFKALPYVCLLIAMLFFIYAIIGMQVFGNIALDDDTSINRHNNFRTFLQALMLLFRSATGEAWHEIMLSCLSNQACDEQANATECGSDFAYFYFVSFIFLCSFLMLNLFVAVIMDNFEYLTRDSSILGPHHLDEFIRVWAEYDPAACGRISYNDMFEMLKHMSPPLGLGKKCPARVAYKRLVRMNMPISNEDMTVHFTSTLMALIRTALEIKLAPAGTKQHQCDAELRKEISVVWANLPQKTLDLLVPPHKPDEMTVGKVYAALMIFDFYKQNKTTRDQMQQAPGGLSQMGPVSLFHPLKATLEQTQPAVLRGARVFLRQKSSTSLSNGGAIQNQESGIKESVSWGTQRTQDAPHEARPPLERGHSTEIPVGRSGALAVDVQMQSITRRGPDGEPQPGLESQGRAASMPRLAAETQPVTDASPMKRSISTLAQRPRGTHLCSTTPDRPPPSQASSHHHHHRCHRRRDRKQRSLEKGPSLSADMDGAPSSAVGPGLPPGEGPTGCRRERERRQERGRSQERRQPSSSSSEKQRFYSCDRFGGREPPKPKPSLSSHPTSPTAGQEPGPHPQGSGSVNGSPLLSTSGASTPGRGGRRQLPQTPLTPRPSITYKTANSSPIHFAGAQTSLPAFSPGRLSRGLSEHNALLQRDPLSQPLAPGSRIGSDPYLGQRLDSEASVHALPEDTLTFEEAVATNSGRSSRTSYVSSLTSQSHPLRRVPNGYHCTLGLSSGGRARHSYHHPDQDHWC
T1 sequence (Q02410 whole entry): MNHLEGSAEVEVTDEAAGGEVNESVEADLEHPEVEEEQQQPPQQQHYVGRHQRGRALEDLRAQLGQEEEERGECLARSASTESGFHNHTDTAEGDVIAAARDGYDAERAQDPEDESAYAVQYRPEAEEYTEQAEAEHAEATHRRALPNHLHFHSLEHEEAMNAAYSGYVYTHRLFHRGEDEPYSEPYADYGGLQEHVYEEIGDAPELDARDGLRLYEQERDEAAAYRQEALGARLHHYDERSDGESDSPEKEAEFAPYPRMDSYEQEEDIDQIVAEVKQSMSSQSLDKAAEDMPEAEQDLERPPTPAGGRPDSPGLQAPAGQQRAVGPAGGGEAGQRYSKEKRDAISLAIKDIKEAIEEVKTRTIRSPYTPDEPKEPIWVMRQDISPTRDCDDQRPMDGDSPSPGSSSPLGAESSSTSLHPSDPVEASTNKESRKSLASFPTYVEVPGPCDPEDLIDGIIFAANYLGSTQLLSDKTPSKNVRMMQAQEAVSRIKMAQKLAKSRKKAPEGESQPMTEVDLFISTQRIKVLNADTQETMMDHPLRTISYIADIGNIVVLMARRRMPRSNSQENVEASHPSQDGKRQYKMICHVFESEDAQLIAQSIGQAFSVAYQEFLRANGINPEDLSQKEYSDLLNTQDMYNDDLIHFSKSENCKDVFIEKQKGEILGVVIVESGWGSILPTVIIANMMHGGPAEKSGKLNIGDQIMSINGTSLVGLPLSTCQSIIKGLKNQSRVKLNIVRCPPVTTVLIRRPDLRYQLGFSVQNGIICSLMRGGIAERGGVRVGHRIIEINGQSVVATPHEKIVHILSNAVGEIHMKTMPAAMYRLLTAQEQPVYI

The target in experiment [2] is T1, Voltage-gated N-type calcium channel alpha-1B subunit/Amyloid beta A4 precursor protein-binding family A member 1. Put plainly: disruptors of Mint-PDZ/N-type channel peptide interaction – biochemical, HTRF, SAR follow-up (AID 2489). The experiment is classed as functional.
The target in experiment [3] is Scavenger receptor class B member 1 (Mus musculus, UniProt Q61009). Put plainly: inhibitors of SR-BI mediated HDL lipid uptake, dose response, ldlA[mSR-BI] cells, fluorescence, cherry pick (AID 493194).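 Further: cellular uptake of fluorescent DiI-labeled HDL measured as cell fluorescence.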 In kind it is functional, cell-based.
Sequence of Scavenger receptor class B member 1 (Q61009 whole entry): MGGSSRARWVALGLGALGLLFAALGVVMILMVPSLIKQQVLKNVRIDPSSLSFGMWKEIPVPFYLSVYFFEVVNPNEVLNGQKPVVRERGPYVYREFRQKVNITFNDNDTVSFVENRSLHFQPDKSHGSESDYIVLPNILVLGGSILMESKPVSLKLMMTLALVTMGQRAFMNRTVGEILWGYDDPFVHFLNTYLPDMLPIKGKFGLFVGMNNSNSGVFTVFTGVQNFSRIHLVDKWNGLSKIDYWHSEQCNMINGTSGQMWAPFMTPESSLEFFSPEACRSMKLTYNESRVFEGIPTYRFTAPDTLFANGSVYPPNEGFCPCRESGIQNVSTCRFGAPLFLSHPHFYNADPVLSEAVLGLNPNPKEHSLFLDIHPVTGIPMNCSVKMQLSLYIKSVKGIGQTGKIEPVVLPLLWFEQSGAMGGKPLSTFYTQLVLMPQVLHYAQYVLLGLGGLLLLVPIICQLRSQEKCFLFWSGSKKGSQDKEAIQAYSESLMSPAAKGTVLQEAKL
Another experiment has as its target X-box-binding protein 1 (Homo sapiens, UniProt P17861). In kind it is functional, Cricetulus griseus.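 Further: confirmatory dose-response counter-screen serving a CHOP assay.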
Experiment [4] concerns the target G2/mitotic-specific cyclin-B1 (Homo sapiens, UniProt P14635). Put plainly: G2/M cell cycle arrest in HeLa, late-stage follow-up, mechanism study for Wee1 degradation inhibitor project, FACS, panel member Cyclin B Degradation (AID 2088).
In another experiment the target is Wee1-like protein kinase (Homo sapiens, UniProt P30291). The experiment is described as follows: G2/M cell cycle arrest in HeLa, late-stage follow-up, mechanism study for Wee1 degradation inhibitor project, FACS, panel member Wee1 Degradation (AID 2088).
Sequence of Wee1-like protein kinase (P30291 whole entry): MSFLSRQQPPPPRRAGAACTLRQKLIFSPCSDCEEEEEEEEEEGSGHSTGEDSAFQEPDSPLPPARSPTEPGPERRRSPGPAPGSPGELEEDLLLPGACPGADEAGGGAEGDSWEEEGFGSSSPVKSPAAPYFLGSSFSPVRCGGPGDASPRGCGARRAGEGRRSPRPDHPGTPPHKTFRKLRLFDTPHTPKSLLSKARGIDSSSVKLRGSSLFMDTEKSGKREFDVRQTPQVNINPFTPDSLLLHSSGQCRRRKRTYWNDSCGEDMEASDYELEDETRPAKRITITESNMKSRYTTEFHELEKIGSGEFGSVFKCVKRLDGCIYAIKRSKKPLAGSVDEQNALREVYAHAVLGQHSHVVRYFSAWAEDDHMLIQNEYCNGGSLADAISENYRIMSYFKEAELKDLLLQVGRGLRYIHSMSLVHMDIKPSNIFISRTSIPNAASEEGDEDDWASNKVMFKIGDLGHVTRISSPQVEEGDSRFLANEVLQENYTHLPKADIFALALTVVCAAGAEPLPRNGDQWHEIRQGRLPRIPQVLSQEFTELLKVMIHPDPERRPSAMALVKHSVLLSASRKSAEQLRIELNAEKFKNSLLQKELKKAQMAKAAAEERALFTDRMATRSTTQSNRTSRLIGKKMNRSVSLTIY

Sequence of G2/mitotic-specific cyclin-B1 (P14635 whole entry): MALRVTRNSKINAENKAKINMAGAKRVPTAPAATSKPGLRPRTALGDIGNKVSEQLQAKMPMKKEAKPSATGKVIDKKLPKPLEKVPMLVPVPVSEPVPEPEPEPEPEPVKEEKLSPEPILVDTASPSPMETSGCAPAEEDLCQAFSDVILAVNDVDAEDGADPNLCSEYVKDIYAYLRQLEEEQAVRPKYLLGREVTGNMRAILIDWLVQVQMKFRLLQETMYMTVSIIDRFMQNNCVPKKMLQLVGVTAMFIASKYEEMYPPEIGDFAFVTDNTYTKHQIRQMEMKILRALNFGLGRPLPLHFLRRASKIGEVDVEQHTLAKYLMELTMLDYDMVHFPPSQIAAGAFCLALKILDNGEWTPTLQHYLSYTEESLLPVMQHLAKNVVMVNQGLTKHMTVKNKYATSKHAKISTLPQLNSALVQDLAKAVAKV
Sequence of X-box-binding protein 1 (P17861 whole entry): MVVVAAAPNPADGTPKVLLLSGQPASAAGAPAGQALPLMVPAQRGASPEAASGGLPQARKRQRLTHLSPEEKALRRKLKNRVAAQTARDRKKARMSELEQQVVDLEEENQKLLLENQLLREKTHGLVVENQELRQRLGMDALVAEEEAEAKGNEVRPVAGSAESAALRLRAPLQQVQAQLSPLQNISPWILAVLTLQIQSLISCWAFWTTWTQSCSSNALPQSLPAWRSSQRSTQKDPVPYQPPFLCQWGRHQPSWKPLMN

Consider `O=C(NCCc1ccccc1)c1cc(-c2ccco2)nc2ccccc12`, for which the IC50 in experiment [1] and in experiment [2] was > 56.8 µM (inactive) throughout.
`COC(=O)c1cn(C(=O)c2cccc3ccccc23)c2ccccc12`: in experiment [3], the AC50 is 25.1 µM (active).
On to `Cc1nn(-c2ccc(C(F)(F)F)cn2)c(C)c1Oc1ccccc1O`, for which the “Absolute IC50 (XBP1)” value at X-box-binding protein 1 was 10 µM.
As to `Cn1c(=O)cc(OCCCC(=O)Nc2cccc(C(F)(F)F)c2)c2ccccc21`, the EC50 (in experiment [4]; on Wee1-like protein kinase) was > 49.7 µM (inactive) throughout.
